Laboratory results reported in patent US10479814B2, “Adenosine receptor activation reagent and the uses of thereof” (Zhejiang Subtropical Crops Research Institute, priority 2014, dated 2019).
“Also recorded” adds a separate entry of the source.

Key:
[1] = test system: rat middle cerebral artery distal obstruction cerebral ischemia model; experiment: dMCAO cerebral ischemia: TUNEL detection of brain cortex apoptosis; format: in vivo
Experimental: Using rat middle cerebral artery distal obstruction cerebral ischemia model. (1) according to rat weight, 10% chloral hydrate (3 ml/kg) was peritoneally injected to anaesthetize. (2) the rat lie on right side and fixed, 1 cm skin incision was cut at connection of inner canthus with external canal, fascia was isolated, muscle tissue, the skull was exposed; (3) a small amount of normal saline was sucked with cotton ball to wipe the skull to ac clear view; (4) fascia was isolated under operating microscope, and the skull was exposed, a hole with diameter of 2 mm circular was drilled at a sute 1/3 of spine; (5) the excess bone debris was washed by a small amount of normal saline, the meninge was push aside, and the middle cerebral artery MCA was exposed; (6) the rat lie in supine position and fixed, an incision was made along middle of throat, and arteria carotis communis CCA on both sides were isolate, pass through with a surgical suture, not ligated temporarily; (7) the MCA was found under operating microscope, burned by a monopolar coagulator, then wash and colled with normal saline; (8) immediately after coagulation, the arteria carotis communis on both sides was ligated, and blocked for 60 min; (9) the wound on head was stitched, after 1 hour the arteria carotis communis on both sides was […], and the skin was stitched, thus the modeling was complete. […]

[2] = test system: pentylenetetrazole induced convulsion; experiment: pentylenetetrazole induced convulsion in mouse; format: in vivo
Experimental: Male ICR mouse, 18˜22 g; purchased from Animal Experiment Center of Wenzhou Medical University. Before experiment, animals were adapted to environment for at least 5 days. Kept at 25 °C, food and water were freely fed. Based on the weight, the healthy male ICR mice were randomly divided into control group (1% DMSO, ip), model group, CCPA group (0.1 mg·kg^−1, ip), HEA group (15 mg/kg, 40 mg/kg, 60 mg/kg), DPCPX group (2 mg·kg^−1, ip), ZM241385 group (1 mg·kg^−1, 5 mg·kg^−1, ip), DPCPX+HEA (2 mg·kg^−1+40 mg/kg, ip) group and ZM241385+HEA (1 mg·kg^−1+40 mg/kg, 5 mg·kg^−1+40 mg/kg ip) group.
The survival time and mortality after convulsion were respectively recorded for each group.

[3] = test system: pain writhing response induced by 0.7% acetic acid; experiment: acetic acid writhing method (analgesia); format: in vivo, mouse; conditions: for effect of A1 antagonist on analgesic effect of the HEA: DPCPX 1 mg/kg ip 10 minutes before HEA 15 mg/kg
Experimental: Clean male Kunming mice, weight 18-22 g, selecting adenosine AiR antagonist DPCPX. The mice were divided into solvent group, HEA (15 mg/kg) group, DPCPX (1 mg/kg) and DPCPX+HEA (1 mg/kg+15 mg/kg) group; wherein in DPCPX+HEA group, the mouse was peritoneally injected with antagonist, after 10 minutes, the HEA was peritonealy injected. Using writhing method, the treatment dose was given, after 30-40 minutes, 0.7% acetic acid was peritoneally injected, and writhing number of the white mouse within 15 minutes was recorded, calculating the reduction number of pain writhing response induced by 0.7% acetic acid by the HEA.

[4] = test system: TNF-α mRNA in mouse renal cortex; experiment: kidney ischemia reperfusion: real time quantitative PCR of TNF-α; format: in vivo; conditions: vs IR group; HEA 5, 7.5, 10 mg/kg; DPCPX 1 mg/kg; DPCPX 1 mg/kg+HEA
Experimental: Male C57BL/6 mice 20-25 g, after one week of adaptive feeding to the animals, were randomly divided into eight groups: sham-operation group, IR group, HEA 5 mg/kg group, HEA 7 mg/kg group, HEA 10 mg/kg group, DPCPX (1 mg/kg) group, DPCPX (1 mg/kg)+HEA (5 mg/kg) group and DPCPX (1 mg/kg)+HEA (7.5 mg/kg) group. […]
The MPO analysis was conducted according to the specification in the kit. 9.2.6 Real time quantitative PCR analysis of gene expression of ICAM-1, TNF-α and IL-1β; the sequence of primer used in RT-PCR reaction system is as follow:
PCR amplification reaction system: IQ SYBR Green Super mix 12.5 μL, Forward primer (10 μmo/L) 1 μL, Reverse primer (10 μmol/L) 1 μL, cDNA (water was added to dilute to same level) 10.5 μL. […] The statistics and calculation of experiment results was automatically conducted fluorescence quantitative PCR analyzing software BIO-RAD CFX Manager. Target gene mRNA expression level was calculated by 2-ΔΔCt method, and standardized using the GAPDH mRNA in corresponding specimen a standard.

SMILES: OCCNc1ncnc2c1ncn2[C@@H]1O[C@H](CO)[C@@H](O)[C@H]1O [HEA, N(6)-(2-hydroxyethyl)-adenosine]
- apoptosis rate of cerebral cortex infarction ischemic penumbra (TUNEL) ([1]; dMCAO rat, HEA 7.5 mg/kg ip, vs model group): significantly reduced; also recorded: significantly reduce the apoptosis rate of rat cerebral cortex infarction ischemic penumbra
- survival time after convulsion ([2]; HEA 40 mg/kg ip, pentylenetetrazole 100 mg/kg ip, vs control group): significantly extend the survival time
- mortality of mouse convulsion ([2]; HEA 40 mg/kg, pentylenetetrazole 100 mg/kg ip): very significantly reduce the mortality
- writhing number ([3]; HEA 15 mg/kg ip, 0.7% acetic acid, within 15 minutes, vs solvent group): significantly reduced the writhing number; also recorded: significantly reduce writhing number
- TNF-α mRNA expression in renal cortex [4]: significantly reduce the high expression

SMILES: CCCn1c(=O)c2[nH]c(C3CCCC3)nc2n(CCC)c1=O [DPCPX, reference compound]
- effect of DPCPX on brain protective effect of HEA (TUNEL) ([1]; DPCPX 1 mg/kg ip + HEA 7.5 mg/kg ip): blocking brain protective effect of the HAE
- effect of antagonist on the anti-convulsion action of the HEA ([2]; antagonist ip 10 min before HEA 40 mg/kg, DPCPX 2 mg/kg, ZM241385 1 and 5 mg/kg): significantly inhibit the anti-convulsion effect of the HEA; also recorded: significantly reduce the anti-convulsion effect of the HEA
- effect of A1 antagonist on analgesic effect of the HEA [3]: analgesic effect of the HEA is significantly antagonized
- effect of A1 antagonist on analgesic effect of the HEA ([3]; listed as adenosine A1 receptor antagonist): analgesic effect was reduced
- TNF-α mRNA expression in renal cortex [4]: significantly increase
